What was measured:
[1] = tested on: intracellular MRSA in HeLa cells; test: Gentamicin protection assay with CFU count in MRSA-infected HeLa cells; format: cell-based, Staphylococcus aureus; conditions: for reduction of intracellular bacterial burden (CFU): validation of 17 hit compounds, Figure 2A; for reduction in bacterial burden (CFU): Figure 2B, n=17
Method in brief: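 Cells infected with MRSA (mean MOI 6.8 ± 4.6) for 1 hour at 37°C, extracellular bacteria killed with 30 µg/ml gentamicin for 15 min, then overnight with kinase inhibitor plus 5 µg/ml gentamicin; DMSO as negative control. Cells lysed in water with 0.05% SDS, lysates serially diluted and plated for CFU; triplicate per compound.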

[2] = tested on: intracellular MRSA in PMA-differentiated THP-1 cells; test: Gentamicin protection assay with CFU count in MRSA-infected PMA-differentiated THP-1 cells; format: cell-based, Staphylococcus aureus; conditions: 10 µM, n=6
Method: (§1) The cells were resuspended in cell culture medium without antibiotics, seeded with 10,000 cells/well into Costar flat-bottom 96-well plates (Corning, Amsterdam, the Netherlands), and were incubated overnight at 37°C/5% CO2. The next day, the bacteria were centrifuged at ≥1800 g for 15 min and resuspended in cold PBS + 5 mM ethylenediaminetetraacetic acid (EDTA). The number of CFUs present in the bacterial suspension was estimated from the optical density at 600 nm (OD600) by assuming 8x10^8 CFUs to be present in a bacterial suspension with OD600 = 1, based on prior titrations. The bacterial suspension was diluted in cell culture medium without antibiotics and added to the cells. Accuracy of the multiplicity of infection (MOI) was validated by plating serial dilutions of the MRSA inoculums on Difco TS agar plates (BD Biosciences). The calculated mean MOI throughout all experiments was 6.8 ± 4.6 (mean ± SD). Infected cells were centrifuged for 3 min at 150 g and incubated for 1 hour at 37°C/5% CO2. Next, the cells were incubated with fresh cell culture medium supplemented with 30 µg/ml gentamicin sulphate (Lonza BioWhittaker, Basel, Switzerland) for 15 min at 37°C/5% CO2 to kill residual extracellular bacteria. […]

[3] = tested on: intracellular MRSA in A549 cells; test: Gentamicin protection assay with CFU count in MRSA-infected A549 cells; format: cell-based, Staphylococcus aureus; conditions: 10 µM, n=7
Method: as §1

HER2 = tested on: HER2; parameters: method as in Elkins et al., 2016; conditions: PKIS1, Caliper assay, ref Elkins et al., 2016; cited from earlier work
HeLa cells = test: Compound screen by flow cytometry: HeLa cell count as surrogate readout of cell viability (z-scoreHeLa); format: cell-based, human; conditions: for z-scoreHeLa mean: mean of 3 replicates; for z-scoreHeLa rep 1 / cell count rep 1: replicate 1; for z-scoreHeLa rep 2 / cell count rep 2: replicate 2; for z-scoreHeLa rep 3 / cell count rep 3: replicate 3
Method in brief: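 The viability surrogate was the count of fixed HeLa cells by flow cytometry, converted to z-scores against DMSO controls with values deviating two-fold excluded. Before counting, cells had been infected with MRSA for 1 h and cleared of extracellular bacteria with gentamicin. They were then exposed overnight to kinase inhibitors in triplicate.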

planktonic MRSA cultures = test: Bacterial growth assay in cell-free planktonic MRSA cultures (OD600); format: cell-based, Staphylococcus aureus; conditions: Supplementary Figure S5
Method: […] The absorbance was measured using an EnVision plate reader (PerkinElmer). The plates were incubated at 37°C overnight and the absorbance was measured again the next day. Real-time measurement of bioluminescence by the MRSA-lux strain was performed in a white flat-bottom 96-wells plate using a SpectraMax i3x plate reader and an integration time set at 9000 ms.

[4] = tested on: bioluminescent strain of MRSA; test: Real-time bioluminescence of MRSA-lux after infection of HeLa cells; format: cell-based, Staphylococcus aureus; conditions: 10 µM, infected HeLa cells
Method: The cells were resuspended in cell culture medium without antibiotics, seeded with 10,000 cells/well into Costar flat-bottom 96-well plates (Corning, Amsterdam, the Netherlands), and were incubated overnight at 37°C/5% CO2. The next day, the bacteria were centrifuged at ≥1800 g for 15 min and resuspended in cold PBS + 5 mM ethylenediaminetetraacetic acid (EDTA). The number of CFUs present in the bacterial suspension was estimated from the optical density at 600 nm (OD600) by assuming 8x10^8 CFUs to be present in a bacterial suspension with OD600 = 1, based on prior titrations. The bacterial suspension was diluted in cell culture medium without antibiotics and added to the cells. […] The calculated mean MOI throughout all experiments was 6.8 ± 4.6 (mean ± SD). […]
MRSA cultures at a concentration corresponding to an absorbance of 0.1 at 600 nm were incubated with the kinase inhibitors at 10 μM in flat-bottom 96-well plates. The absorbance was measured using an EnVision plate reader (PerkinElmer). The plates were incubated at 37°C overnight and the absorbance was measured again the next day. Real-time measurement of bioluminescence by the MRSA-lux strain was performed in a white flat-bottom 96-wells plate using a SpectraMax i3x plate reader and an integration time set at 9000 ms.

[5] = tested on: other strains of S. aureus; test: CFU count in HeLa cells infected with other strains of S. aureus; format: cell-based, Staphylococcus aureus; conditions: Supplementary Figure S8A
Method: as §1

AMPK [6] = tested on: AMPK; parameters: method as in Elkins et al., 2016; conditions: ref Elkins et al., 2016; cited from earlier work
AMPK [7] = test: Phosphorylation of AMPK at Thr172 by western blot; format: cell-based, human; conditions: MRSA-infected HeLa cells
Method: HeLa cells were seeded with 100,000 cells/well in 24-wells plates. In short, the cells were lysed in EBSB buffer (10% v/v glycerol, 3% SDS, 100 mM Tris-HCl, pH 6.8) supplemented with one tablet of cOmplete EDTA-free protease inhibitor cocktail (Sigma-Aldrich) and proteins were denaturated at 95°C for 5 min. Protein concentrations were determined using a Pierce™ BCA protein assay kit (Thermo Fisher Scientific). Samples were diluted in Laemmli sample buffer and loaded on a 15-well 4–20% Mini-PROTEAN® TGX™ Precast Protein Gel for electrophoresis (both from Bio-Rad, Hercules, CA, USA). […] Membranes were blocked for 1h in PBS supplemented with 5% w/v non-fat dry milk. Next, the membranes were cut and each protein was separately stained with primary antibodies against actin and LC3B in PBS supplemented with 5% w/v non-fat dry milk, or against AMPKα and AMPKα-pThr172 in PBS supplemented with 5% BSA (antibodies listed in Supplementary Table S1 ). Membranes were stained with secondary antibodies in PBS supplemented with 5% w/v non-fat dry milk. After each staining, membranes were washed four times in PBS + 0.1% Tween20. Prior to revelation, the membranes were incubated for 10 min in enhanced chemiluminescence (ECL) Prime Western Blotting System reagent (GE Healthcare, Hoevelaken, The Netherlands). […] Protein bands were quantified using Fiji software ([Schindelin et al., 2012]).

[8] = PKIS compound screen, Yes/No call
[9] = PKIS compounds raw data, HeLa cell count
[10] = compound screen, HeLa cell count
[11] = PKIS compound screen raw data, HeLa cell count
[12] = PKIS compound screen, HeLa cell count

Compound | reduction of intracellular bacterial burden (CFU) ([1]; 10 µM) [%] | reduction in bacterial burden (CFU) ([1]; HeLa cells, 10 µM) [%] | lowest concentration acting against intracellular MRSA (titration) ([1]; MRSA-infected HeLa cells) [nM] | effect on CFU counts [2] | activity on bacterial burden (CFU) [3] | cell death (HeLa cells; [8]) | z-scoreHeLa mean (HeLa cells; PKIS compound screen) | z-scoreHeLa rep 1 (HeLa cells; PKIS compound screen) | z-scoreHeLa rep 2 (HeLa cells; PKIS compound screen) | z-scoreHeLa rep 3 (HeLa cells; PKIS compound screen) | cell count rep 1 (HeLa cells; [9]) | cell count rep 2 (HeLa cells; [9]) | cell count rep 3 (HeLa cells; [9]) | also measured
O=S(=O)(CCNCc1ccc(-c2ccc3ncnc(Nc4ccc(OCc5cccc(F)c5)c(Cl)c4)c3c2)o1)c1ccccc1 [GW633459A] | 59 | 50 | 10 | reductions in CFU counts | not active | No | 0.80 | 0.28 | 0.72 | 1.40 | 5085 | 5223 | 9893 | CFU (% of DMSO) at 10 µM ([1]; 10 µM, MRSA-infected HeLa cells): 41.2 % of DMSO; % inhibition at 1 µM HER2 (HER2): 60%; effect on planktonic MRSA growth (direct antibiotic effect) (planktonic MRSA cultures; up to 100 µM concentration): not observe any direct antibacterial effects
COc1ccc2[nH]c3c4[nH]c5ccc(OC)cc5c4c4c(c3c2c1)C(=O)NC4=O [GW296115X] | 67 | 70 | – | – | – | – | – | – | – | – | 4446 | 4236 | 6955 | bacterial killing when bafilomycin A1 is added ([1]; HeLa cells, combined with bafilomycin A1 (100 nM), Figure 5H): reverted; reduction of the intracellular bacterial burden, maximal ([1]; MRSA-infected HeLa cells, titration): up to 80%; Emax ([1]; Staphylococcus aureus, MRSA, HeLa): -80%; IC50 ([1]; Staphylococcus aureus, MRSA, HeLa, read-out: IC50 for reduction of intracellular bacterial burden): 159 nM; cell death (HeLa cells; Yes/No call from z-scoreHeLa): No; z-scoreHeLa mean (HeLa cells; [10]): -0.11; z-scoreHeLa rep 1 (HeLa cells; [10]): -0.30; z-scoreHeLa rep 2 (HeLa cells; [10]): -0.0242; z-scoreHeLa rep 3 (HeLa cells; [10]): -0.00316; direct antibiotic effects against MRSA (planktonic MRSA cultures; planktonic cultures): not the case; effect on bioluminescent MRSA growth over time [4]: acts rapidly; activity against other strains of S. aureus (CFU) [5]: active; action on AMPK in a biochemical assay (AMPK [6]): AMPK inhibitor; AMPK phosphorylation at Thr172 (AMPK [7]): significantly increased AMPK phosphorylation at Thr172
CC(C)c1nc(-c2cccc(NS(=O)(=O)c3c(F)cccc3F)c2F)c(-c2ccnc(Nc3ccc(N4CCOCC4)nc3)n2)s1 [GSK2008607A] | 56 | 72 | 10 | reductions in CFU counts | not active | No | -1.34 | -1.52 | -1.39 | -1.10 | 3519 | 3908 | 3860 | cell count rep 1 (HeLa cells; [11]): 21178; cell count rep 2 (HeLa cells; [11]): 14585; cell count rep 3 (HeLa cells; [11]): 12213; z-scoreHeLa mean (HeLa cells; [12]): -1.56; z-scoreHeLa rep 1 (HeLa cells; [12]): -1.53; z-scoreHeLa rep 2 (HeLa cells; [12]): -1.83; z-scoreHeLa rep 3 (HeLa cells; [12]): -1.31; cell death (HeLa cells; PKIS compound screen, Yes/No call on z-scoreHeLa): No

— PMC10999543, “Identification of kinase modulators as host-directed therapeutics against intracellular methicillin-resistant Staphylococcus aureus” (Frontiers in Cellular and Infection Microbiology, 2024)
